Assay results taken from PubChem BioAssay (NCI).
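How tested: cells in 96-well plates exposed to compound for 48 hours at five concentrations. Here, GI50 denotes the concentration required for 50% inhibition of growth. At the TGI there is no net growth.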

How the values were obtained:
Assay in all cases: NCI-60 cell line screen, 48 h
786-0 renal = tested on: 786-0 renal
A498 renal = tested on: A498 renal
A549 NSCLC = tested on: A549 NSCLC
ACHN renal = tested on: ACHN renal
BT-549 breast = tested on: BT-549 breast
CAKI-1 renal = tested on: CAKI-1 renal
CCRF-CEM leukemia = tested on: CCRF-CEM leukemia
COLO 205 colon = tested on: COLO 205 colon
DU-145 prostate = tested on: DU-145 prostate
EKVX NSCLC = tested on: EKVX NSCLC
HCC-2998 colon = tested on: HCC-2998 colon
HCT-116 colon = tested on: HCT-116 colon
HCT-15 colon = tested on: HCT-15 colon
HL-60(TB) leukemia = tested on: HL-60(TB) leukemia
HOP-62 NSCLC = tested on: HOP-62 NSCLC
HOP-92 NSCLC = tested on: HOP-92 NSCLC
HS 578T breast = tested on: HS 578T breast
HT29 colon = tested on: HT29 colon
IGROV1 ovarian = tested on: IGROV1 ovarian
K-562 leukemia = tested on: K-562 leukemia
KM12 colon = tested on: KM12 colon
LOX IMVI melanoma = tested on: LOX IMVI melanoma
M14 melanoma = tested on: M14 melanoma
MALME-3M melanoma = tested on: MALME-3M melanoma
MCF7 breast = tested on: MCF7 breast
MDA-MB-231 breast = tested on: MDA-MB-231 breast
MDA-MB-435 = tested on: MDA-MB-435
MDA-MB-468 breast = tested on: MDA-MB-468 breast
MOLT-4 leukemia = tested on: MOLT-4 leukemia
NCI-H226 lung = tested on: NCI-H226 lung
NCI-H23 lung = tested on: NCI-H23 lung
NCI-H460 lung = tested on: NCI-H460 lung
NCI-H522 lung = tested on: NCI-H522 lung
NCI/ADR-RES ovarian = tested on: NCI/ADR-RES ovarian
OVCAR-3 ovarian = tested on: OVCAR-3 ovarian
OVCAR-4 ovarian = tested on: OVCAR-4 ovarian
OVCAR-5 ovarian = tested on: OVCAR-5 ovarian
OVCAR-8 ovarian = tested on: OVCAR-8 ovarian
PC-3 prostate = tested on: PC-3 prostate
RPMI-8226 leukemia = tested on: RPMI-8226 leukemia
SF-268 CNS = tested on: SF-268 CNS
SF-295 CNS = tested on: SF-295 CNS
SF-539 CNS = tested on: SF-539 CNS
SK-MEL-2 melanoma = tested on: SK-MEL-2 melanoma
SK-MEL-28 melanoma = tested on: SK-MEL-28 melanoma
SK-MEL-5 melanoma = tested on: SK-MEL-5 melanoma
SK-OV-3 ovarian = tested on: SK-OV-3 ovarian
SN12C renal = tested on: SN12C renal
SNB-19 CNS = tested on: SNB-19 CNS
SNB-75 CNS = tested on: SNB-75 CNS
SR leukemia = tested on: SR leukemia
SW-620 colon = tested on: SW-620 colon
T-47D breast = tested on: T-47D breast
TK-10 renal = tested on: TK-10 renal
U251 CNS = tested on: U251 CNS
UACC-257 melanoma = tested on: UACC-257 melanoma
UACC-62 melanoma = tested on: UACC-62 melanoma
UO-31 renal = tested on: UO-31 renal

Work on C[C@H]1[C@H](OC(=O)CCC(=O)N(CCCc2cn(-c3ccc(CN4CCOCC4)cc3)nn2)CCNc2ccnc3cc(Cl)ccc23)O[C@@H]2OC3(C)CC[C@H]4[C@H](C)CC[C@@H]1[C@@]24OO3 yielded a GI50 (786-0 renal) of 1530 nM, a TGI (786-0 renal) of 3540 nM and a GI50 (A498 renal) of over 11800 nM. It also gave a TGI (A498 renal) of over 11800 nM, a GI50 (A549 NSCLC) of 3250 nM and a TGI (A549 NSCLC) of over 11800 nM. The GI50 (ACHN renal) was 2740 nM, the TGI (ACHN renal) was over 11800 nM and the GI50 (BT-549 breast) was 899 nM. The TGI (BT-549 breast) was 8420 nM, the GI50 (CAKI-1 renal) was 4560 nM and the TGI (CAKI-1 renal) was over 11800 nM. For the same molecule, the GI50 (CCRF-CEM leukemia) was 1020 nM, the TGI (CCRF-CEM leukemia) was over 11800 nM and the GI50 (COLO 205 colon) was 623 nM. For the same molecule, the TGI (COLO 205 colon) was over 11800 nM, the GI50 (DU-145 prostate) was 6840 nM and the TGI (DU-145 prostate) was over 11800 nM. For the same molecule, the GI50 (EKVX NSCLC) was 1080 nM, the TGI (EKVX NSCLC) was over 11800 nM and the GI50 (HCC-2998 colon) was 3130 nM. For the same molecule, the TGI (HCC-2998 colon) was over 11800 nM, the GI50 (HCT-116 colon) was 372 nM and the TGI (HCT-116 colon) was 2680 nM. It also gave a GI50 (HCT-15 colon) of 389 nM, a TGI (HCT-15 colon) of 4190 nM and a GI50 (HL-60(TB) leukemia) of 359 nM. It also gave a TGI (HL-60(TB) leukemia) of 1440 nM, a GI50 (HOP-62 NSCLC) of 10800 nM and a TGI (HOP-62 NSCLC) of over 11800 nM. For the same molecule, the GI50 (HOP-92 NSCLC) was 506 nM, the TGI (HOP-92 NSCLC) was 4650 nM and the GI50 (HS 578T breast) was 1230 nM. For the same molecule, the TGI (HS 578T breast) was 8090 nM, the GI50 (HT29 colon) was 745 nM and the TGI (HT29 colon) was 3880 nM. The GI50 (IGROV1 ovarian) was 3730 nM, the TGI (IGROV1 ovarian) was over 11800 nM and the GI50 (K-562 leukemia) was 330 nM. For the same molecule, the TGI (K-562 leukemia) was 2390 nM, the GI50 (KM12 colon) was 596 nM and the TGI (KM12 colon) was over 11800 nM. For the same molecule, the GI50 (LOX IMVI melanoma) was 692 nM, the TGI (LOX IMVI melanoma) was 3540 nM and the GI50 (M14 melanoma) was 1590 nM. For the same molecule, the TGI (M14 melanoma) was 3450 nM, the GI50 (MALME-3M melanoma) was 1510 nM and the TGI (MALME-3M melanoma) was 3040 nM. The GI50 (MCF7 breast) was 821 nM, the TGI (MCF7 breast) was over 11800 nM and the GI50 (MDA-MB-231 breast) was 3050 nM. For the same molecule, the TGI (MDA-MB-231 breast) was over 11800 nM, the GI50 (MDA-MB-435) was 800 nM and the TGI (MDA-MB-435) was 8910 nM. For the same molecule, the GI50 (MDA-MB-468 breast) was 943 nM, the TGI (MDA-MB-468 breast) was 4920 nM and the GI50 (MOLT-4 leukemia) was 317 nM. For the same molecule, the TGI (MOLT-4 leukemia) was 3270 nM, the GI50 (NCI-H226 lung) was 2540 nM and the TGI (NCI-H226 lung) was over 11800 nM. It also gave a GI50 (NCI-H23 lung) of 2280 nM, a TGI (NCI-H23 lung) of over 11800 nM and a GI50 (NCI-H460 lung) of 2200 nM. The TGI (NCI-H460 lung) was 9500 nM, the GI50 (NCI-H522 lung) was 505 nM and the TGI (NCI-H522 lung) was over 11800 nM. The GI50 (NCI/ADR-RES ovarian) was 2640 nM, the TGI (NCI/ADR-RES ovarian) was over 11800 nM and the GI50 (OVCAR-3 ovarian) was 681 nM. The TGI (OVCAR-3 ovarian) was over 11800 nM, the GI50 (OVCAR-4 ovarian) was 869 nM and the TGI (OVCAR-4 ovarian) was over 11800 nM. It also gave a GI50 (OVCAR-5 ovarian) of 1310 nM, a TGI (OVCAR-5 ovarian) of over 11800 nM and a GI50 (OVCAR-8 ovarian) of 801 nM. The TGI (OVCAR-8 ovarian) was over 11800 nM, the GI50 (PC-3 prostate) was 234 nM and the TGI (PC-3 prostate) was over 11800 nM. For the same molecule, the GI50 (RPMI-8226 leukemia) was 406 nM, the TGI (RPMI-8226 leukemia) was 5620 nM and the GI50 (SF-268 CNS) was 2720 nM. The TGI (SF-268 CNS) was over 11800 nM, the GI50 (SF-295 CNS) was 2470 nM and the TGI (SF-295 CNS) was over 11800 nM. The GI50 (SF-539 CNS) was 1590 nM, the TGI (SF-539 CNS) was 3230 nM and the GI50 (SK-MEL-2 melanoma) was 3160 nM. The TGI (SK-MEL-2 melanoma) was over 11800 nM, the GI50 (SK-MEL-28 melanoma) was 1430 nM and the TGI (SK-MEL-28 melanoma) was 3620 nM. It also gave a GI50 (SK-MEL-5 melanoma) of 1190 nM, a TGI (SK-MEL-5 melanoma) of 2580 nM and a GI50 (SK-OV-3 ovarian) of over 11800 nM. It also gave a TGI (SK-OV-3 ovarian) of over 11800 nM, a GI50 (SN12C renal) of 2980 nM and a TGI (SN12C renal) of over 11800 nM. The GI50 (SNB-19 CNS) was 7350 nM, the TGI (SNB-19 CNS) was over 11800 nM and the GI50 (SNB-75 CNS) was 11600 nM. It also gave a TGI (SNB-75 CNS) of over 11800 nM, a GI50 (SR leukemia) of 408 nM and a TGI (SR leukemia) of 2470 nM. The GI50 (SW-620 colon) was 533 nM, the TGI (SW-620 colon) was over 11800 nM and the GI50 (T-47D breast) was 460 nM. For the same molecule, the TGI (T-47D breast) was over 11800 nM, the GI50 (TK-10 renal) was 11700 nM and the TGI (TK-10 renal) was over 11800 nM. For the same molecule, the GI50 (U251 CNS) was 1420 nM, the TGI (U251 CNS) was 8270 nM and the GI50 (UACC-257 melanoma) was 1190 nM. The TGI (UACC-257 melanoma) was 2820 nM, the GI50 (UACC-62 melanoma) was 1150 nM and the TGI (UACC-62 melanoma) was over 11800 nM. The GI50 (UO-31 renal) was 1980 nM and the TGI (UO-31 renal) was over 11800 nM.
